Experiment [1] concerns Ba/F3 cells. Description: Tumor cell growth inhibition test (CCK8 detection), Ba/F3. The experiment is classed as cell-based, mouse. The protocol: (§1) Growth Inhibition Test of the Series of Compounds on Various Tumor Cells (CCK8 Detection)
(1) Ba/F3 mouse IL-3 dependent pro-B lymphocyte cell line, RPMI 1640+10% FBS+10 ng/ml Interleukin-3+1% Sodium Pyruvate;
(§2) (1) Cell culture • a) Cells in logarithmic growth phase were collected, counted, and re-suspended in a complete medium. • b) The cell concentration was adjusted to an appropriate concentration, and inoculated into a 96-well plate in an amount of 100 μl of cell suspension per well. • c) The cells were incubated for 24 hrs in an incubator at 37° C. with 100% relative humidity and 5% CO2.
(§3) (2) Test of relative inhibition rate • 1) Cells in logarithmic growth phase were collected, counted, and re-suspended in a complete medium. The cell concentration was adjusted to an appropriate concentration (determined according to the optimal test result of cell density), and inoculated into a 96-well plate in an amount of 100 μl of cell suspension per well. The cells were incubated for 24 hrs in an incubator at 37° C. with 100% relative humidity and 5% CO2. • 2) The compound to be tested was diluted with the medium to the corresponding action concentration, and […] were added in an amount of 25 µl/well.
(§4) The IC50 curve was fitted using the software Graphpad Prism 5 and using the calculation formula log(inhibitor) vs response and the IC50 value was calculated.

Experiment [2] relates to Karpas 299 cells. In words: Tumor cell growth inhibition test (CCK8 detection), Karpas 299. The experiment is classed as cell-based, human. The procedure: as §1
(2) Karpas 299 human T lymphoma cell line, RPMI 1640+10% FBS+1% Sodium Pyruvate;
as §2, §3, §4

Experiment [3] has as its system NCI-H2228 cells. Description: Tumor cell growth inhibition test (CCK8 detection), NCI-H2228. The experiment is classed as cell-based, human. The procedure:
as §1
(3) NCI-H2228 human non-small cell lung cancer cell line, RPMI 1640+10% FBS+1% Sodium Pyruvate;
as §2, §3, §4

Experiment [4] deals with NCI-H3122 cells. Description: Tumor cell growth inhibition test (CCK8 detection), NCI-H3122. Type of experiment: cell-based, human. The protocol:
as §1
(4) NCI-H3122 human lung cancer cell line, RPMI 1640+10% FBS+1% Sodium Pyruvate;
as §2, §3, §4

The target in experiment [5] is ALK enzyme (Homo sapiens, UniProt Q9UM73). Description: In-vitro ALK kinase inhibitory activity (HTRF kinEASE TK kit). Type of experiment: biochemical. The following applies: inhibitory activity for ALK enzyme. The procedure: Anaplastic Lymphoma Kinase (ALK) Inhibitory Activity The in-vitro kinase assay was performed using the HTRF kinEASE TK kit available from Cisbio. The operation steps are indicated in the instructions of the kit. This method was used to detect the inhibitory effect of the compound to be tested on the activity of ALK enzymes in vitro, including wild-type ALK (Cat.PV3867, Invitrogen), ALK L1196M (Cat. PV6168, Life technologies), and ALK F1174L (Cat. PV6160, Life technologies). The specific operation steps were as follows. […] In addition to the control wells, 4 μL of the diluted compound solution to be tested was added to the reaction wells, and 4 μL of the 2.5% DMSO solution corresponding to the ALK enzyme previously formulated was added to the control wells. (2) 2 μL of a TK-biotin substrate solution previously formulated in a substrate concentration corresponding to the ALK enzyme was added to all reaction wells. (3) 2 μL of a previously prepared enzyme solution of corresponding concentration was added to all the reaction wells except the negative wells, and 2 μL of the 1× kinase buffer corresponding to the enzyme was added to the negative wells to make up the volume. The plate was sealed with a membrane, and incubated for 10 min at room temperature after mixing uniformly, such that the compounds were bond to the enzyme fully. (4) 2 μL of an ATP solution in a concentration corresponding to the ALK enzyme was added to all the reaction wells to initiate the kinase reaction, where the enzyme reaction time by ALK was 60 minutes. (5) An ALK test solution was prepared 5 minutes before the end of the kinase reaction. Streptavidin-XL665 and TK antibody europium cryptate (1:100) solutions for assay having a concentration corresponding to the enzyme were prepared using the detection buffer in the kit. (6) After the completion of the kinase reaction, 5 μl of diluted Streptavidin-XL665 was added to all the reaction wells respectively, and mixed uniformly, and then the diluted TK antibody europium cryptate solution for assay was added immediately. (7) The plate was sealed, mixed uniformly and allowed to react at room temperature for 1 h. The fluorescence signal (excitation at 320 nm, and emission at 665 nm and 615 nm) was detected using the ENVISION instrument (Perkinelmer). The inhibition rate for each well was calculated from the values of the fully active wells and the background signal wells. The values of replicated wells were averaged, and the half-maximal inhibitory activity (IC50) of each compound to be tested was fitted with a professional drawing analysis software PRISM 5.0.
Chain of ALK enzyme (Q9UM73 19-1620 limits assumed): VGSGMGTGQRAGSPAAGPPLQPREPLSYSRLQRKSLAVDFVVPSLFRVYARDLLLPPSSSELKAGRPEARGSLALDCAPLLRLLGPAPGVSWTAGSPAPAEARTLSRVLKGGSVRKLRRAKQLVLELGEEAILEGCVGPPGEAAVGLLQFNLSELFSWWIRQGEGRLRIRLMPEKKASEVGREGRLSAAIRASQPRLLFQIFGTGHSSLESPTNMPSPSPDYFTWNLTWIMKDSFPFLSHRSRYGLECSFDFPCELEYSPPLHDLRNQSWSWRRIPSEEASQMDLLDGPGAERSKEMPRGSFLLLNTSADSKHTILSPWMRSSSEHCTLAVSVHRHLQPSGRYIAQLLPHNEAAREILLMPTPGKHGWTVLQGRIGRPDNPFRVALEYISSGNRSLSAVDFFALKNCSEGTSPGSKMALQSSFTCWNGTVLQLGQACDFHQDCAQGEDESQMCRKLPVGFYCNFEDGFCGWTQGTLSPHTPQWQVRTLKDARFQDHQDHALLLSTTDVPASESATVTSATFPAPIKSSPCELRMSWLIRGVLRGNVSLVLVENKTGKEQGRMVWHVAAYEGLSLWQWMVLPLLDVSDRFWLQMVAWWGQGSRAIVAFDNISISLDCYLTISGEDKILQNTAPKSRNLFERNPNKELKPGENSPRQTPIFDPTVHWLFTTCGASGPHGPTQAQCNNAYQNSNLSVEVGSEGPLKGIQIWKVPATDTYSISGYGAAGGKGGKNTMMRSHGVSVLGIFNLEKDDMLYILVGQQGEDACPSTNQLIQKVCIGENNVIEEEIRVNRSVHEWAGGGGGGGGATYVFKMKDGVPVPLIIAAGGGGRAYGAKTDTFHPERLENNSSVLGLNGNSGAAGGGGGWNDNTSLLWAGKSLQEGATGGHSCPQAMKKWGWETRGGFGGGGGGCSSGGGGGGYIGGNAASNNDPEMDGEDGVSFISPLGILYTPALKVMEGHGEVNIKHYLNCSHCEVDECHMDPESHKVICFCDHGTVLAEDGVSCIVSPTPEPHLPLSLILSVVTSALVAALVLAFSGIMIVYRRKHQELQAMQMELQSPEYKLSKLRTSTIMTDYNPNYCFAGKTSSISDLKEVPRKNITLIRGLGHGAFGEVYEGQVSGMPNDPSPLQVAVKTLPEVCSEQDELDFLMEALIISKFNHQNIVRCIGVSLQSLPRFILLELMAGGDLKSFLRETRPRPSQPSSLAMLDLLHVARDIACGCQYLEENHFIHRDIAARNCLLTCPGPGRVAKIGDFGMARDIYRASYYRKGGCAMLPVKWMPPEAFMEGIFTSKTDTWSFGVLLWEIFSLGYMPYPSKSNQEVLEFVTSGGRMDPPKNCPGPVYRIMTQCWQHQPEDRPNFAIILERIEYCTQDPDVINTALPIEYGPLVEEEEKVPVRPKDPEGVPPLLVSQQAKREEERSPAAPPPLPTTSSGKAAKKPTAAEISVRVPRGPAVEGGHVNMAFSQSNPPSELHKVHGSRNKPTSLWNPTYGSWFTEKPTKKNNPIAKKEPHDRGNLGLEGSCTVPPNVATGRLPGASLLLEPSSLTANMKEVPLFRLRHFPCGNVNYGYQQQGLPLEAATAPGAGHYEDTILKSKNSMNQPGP

The subject of experiment [6] is NCI-H2228 nude mice xenografts. In words: In-vivo pharmacodynamic evaluation, NCI-H2228 subcutaneous xenograft. The following applies: 14 days, day 21. The procedure: In-Vivo Pharmacodynamic Evaluation
SCID Beige mice, female, 5-6 weeks old, weighed 18+2 g, purchased from Beijing HFK Bioscience Co., Ltd., bred in an SPF level environment.
NCI-H2228 cells were cultured in PRMI-1640 containing 10% fetal bovine serum (FBS) and 1% sodium pyruvate. The cells were cultured in an incubator at 37° C. with 5% CO2.
Establishment of subcutaneous tumor transplantation model in nude mice by cell inoculation: Tumor cells in logarithmic growth phase were collected, counted and re-suspended in PRMI-1640 basal medium. Matrigel was added at a ratio of 1:1, and the concentration of the cell suspension was adjusted to 6×10^7/ml. Tumor cells were subcutaneously inoculated to the right back of nude mice in an amount of 6×10^6/0.1 mL/mouse using a 1 mL syringe (with a […]).
When the tumor volume reached about 200 mm^3, the animals were randomly grouped according to randomized block method, so that the difference in tumor volume of each group was within 10% of the mean. There were 5 groups in total, each having 8 animals. The day of grouping was recorded as Day 0, and the animals were administered immediately after grouping. Compound I-3 of the present invention and Ceritinib were orally administered once a day for consecutive 14 days, and then observed for 7 days. The weight and tumor size of the animals were measured twice a week during the experiment. The clinical symptoms were observed and recorded daily. After the animals were weighed for the last time on Day 21, they were sacrificed by euthanization with CO2. The tumors were taken, weighed and photographed, and the average tumor size was calculated, to investigate the growth inhibitory effect of the test substance Compound I-3 on human lung cancer NCI-H2228 nude mice xenografts under the experimental conditions.
When the tumor in the tumor-bearing mice grew to a measurable size, the mice were randomly divided into 5 groups according to the principle of equal mean tumor volume using SPSS 17.0 software. Compound I-3 was administered by intragastric administration at a dosage of 30, 10, and 3 mg/kg per day. The positive control ceritinib was administered by intragastric administration at a dose of 10 mg/kg per day in a volume of 0.1 ml/10 g. These agents were administered once a day for consecutive 14 days. The animals in the negative control group were given an equal amount of solvent (1% DMSO in physiological saline). During the administration and recovery periods, the body weight and tumor size of the mice were measured 2-3 times per week. The tumor volume and relative tumor volume were calculated based on the measured data. The tumor volume (TV) was calculated by a formula below: TV=1/2×a×b^2, where a and b represent the major and minor diameters of the tumor, respectively. According to the measurement results, the relative tumor volume (RTV) was calculated, by a formula below: RTV=Vt/V0, where V0 is the tumor volume at the start of the experiment, and Vt is the tumor volume measured each time.

The mark [7] stands for this setting: Homo sapiens, KARPAS-299, 72 hrs.
Setting [8] is: Homo sapiens, NCI-H2228, 72 hrs.
[9] abbreviates: Homo sapiens, NCI-H3122, 72 hrs.

Where two headings read alike, the source gives them in different places.

These results are taken from patent publication US10647694B2, “Diphenylaminopyrimidine and triazine compound, and pharmaceutical composition and use thereof” (ARROMAX PHARMATECH CO., LTD., priority 2016, dated 2020).

Regarding `[2H]C([2H])([2H])C([2H])(Oc1cc(C2CCNCC2)c(C)cc1Nc1ncc(Cl)c(Nc2ccccc2S(=O)(=O)C(C)C)n1)C([2H])([2H])[2H]`, the half-maximal inhibitory concentration (IC50) (in general, the concentration at which inhibition is half-maximal) in experiment [1] (Mus musculus, BaF3, 72 hrs) turned out to be 2890 nM; in experiment [2] (setting [7]), 45.7 nM; in experiment [3] (setting [8]), 111 nM; in experiment [4] (setting [9]), 28.4 nM.

Turning to “5-chloro-N2-(2-D6-ethoxy-5-methyl-4-(piperidin-4-yl)phenyl)-N4-(2-(isopr opylsulfonyl)phenyl))pyrimidin-2,4-diamine [Compound I-14]”, the 50% inhibitory concentration (IC50) in experiment [5] (read-out: IC50 range) was 1 to 10 nM; in experiment [1] (72 hrs), 1990 nM; in experiment [2] (72 hrs) it was 5.23 nM; in experiment [3] (72 hrs) it was 45.5 nM; in experiment [4] (72 hrs) it was 6.09 nM.

Take `Cc1cc(Nc2ncc(Cl)c(Nc3ccccc3S(=O)(=O)C(C)C)n2)c(OC(C)C)cc1C1CCNCC1` [Ceritinib, reference compound]: the half-inhibitory concentration (IC50) in experiment [1] (Mus musculus, BaF3, 72 hrs) stood at 2390 nM; in experiment [2] (setting [7]) it was 35.6 nM; in experiment [3] (setting [8]), 97.1 nM; in experiment [4] (setting [9]), 27.2 nM. For the same compound, in experiment [6] (10 mg/kg qd intragastric), the “IR (%)” value is reported as 26.07%. Also, the “RTV d21” value in experiment [6] (10 mg/kg qd intragastric) was determined as 2.68 ± 0.28. For the same compound, the “T/C (%)” value in experiment [6] (10 mg/kg qd intragastric) is on record as 71.47%.

As to `COc1cc(C2CCNCC2)c(C)cc1Nc1ncc(Cl)c(Nc2ccccc2S(=O)(=O)C(C)C)n1` [Compound I-3, 5-chloro-N4-(2-(isopropylsulfonyl)phenyl)-N2-(2-D3-methoxy-5-methyl-4-(piperidin-4-yl)phenyl)pyrimidin-2,4-diamine], the half-inhibitory concentration (IC50) is 1 to 10 nM in experiment [5] (listed as 3, read-out: IC50 range); 1240 nM in experiment [1] (72 hrs); 7.64 nM in experiment [2] (72 hrs); 41.3 nM in experiment [3] (72 hrs); 4.03 nM in experiment [4] (72 hrs).

As to `[2H]C([2H])([2H])Oc1cc(C2CCNCC2)c(C)cc1Nc1ncc(Cl)c(Nc2ccccc2S(=O)(=O)C(C)C)n1` [Compound I-3, 5-chloro-N4-(2-(isopropylsulfonyl)phenyl)-N2-(2-D3-methoxy-5-methyl-4-(piperidin-4-yl)phenyl)pyrimidin-2,4-diamine], the “IR (%)” value worked out at 12.86% in experiment [6] (3 mg/kg qd intragastric), 53.39% in experiment [6] (10 mg/kg qd intragastric) and 77.14% in experiment [6] (30 mg/kg qd intragastric). Moreover, the “RTV d21” value in experiment [6] (3 mg/kg qd intragastric) is listed as 3.12 ± 0.23; in experiment [6] (10 mg/kg qd intragastric), 1.70 ± 0.20; in experiment [6] (30 mg/kg qd intragastric), 0.79 ± 0.17. Also, the “T/C (%)” value in experiment [6] (3 mg/kg qd intragastric) is given as 77.45%; in experiment [6] (10 mg/kg qd intragastric), 45.33%; in experiment [6] (30 mg/kg qd intragastric), 21.07%.
